Columns and labels:
Human LBAT = molecular target: T1, Human LBAT (Homo sapiens, UniProt Q14973); experiment: LBAT (h/m) assay, human LBAT-overexpressing cells, 3H-taurocholic acid uptake; assay type: cell-based; conditions: 0.3 μM 3H-taurocholic acid and 7.5 μM cold taurocholic acid, 20 minutes, read-out: hLBAT IC50
T1 construct: expressed in transfected cells; Geneticin-selected
T1 sequence (Q14973 1-349): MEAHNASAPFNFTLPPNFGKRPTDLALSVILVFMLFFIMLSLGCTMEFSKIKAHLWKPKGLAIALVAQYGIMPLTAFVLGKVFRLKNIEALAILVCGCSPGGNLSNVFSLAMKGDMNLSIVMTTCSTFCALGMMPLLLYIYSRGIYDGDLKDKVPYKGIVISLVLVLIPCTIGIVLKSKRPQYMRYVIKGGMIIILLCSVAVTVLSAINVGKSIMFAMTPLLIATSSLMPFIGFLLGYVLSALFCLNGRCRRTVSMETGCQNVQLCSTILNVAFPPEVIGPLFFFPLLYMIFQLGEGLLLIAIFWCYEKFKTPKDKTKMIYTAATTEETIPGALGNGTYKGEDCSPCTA
Method in brief: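 Human LBAT-overexpressing cells, washed in FBS-free MEM-alpha, incubated 20 min at 37 °C with 10-point 3-fold inhibitor dilutions (0.2% DMSO final), 0.3 μM 3H-taurocholic acid plus 7.5 μM cold taurocholic acid (mouse LBAT: 25 μM cold). Ice stop, chilled 1 mM taurocholate washes; uptake read by scintillation counting.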

Human IBAT = molecular target: T2, Human IBAT (Homo sapiens, UniProt Q12908); experiment: IBAT (h/m) assay, human IBAT-overexpressing cells, 3H-taurocholic acid uptake; assay type: cell-based; conditions: 0.25 μM 3H-taurocholic acid and 5 μM cold taurocholic acid, 20 minutes, read-out: hIBAT IC50
T2 construct: expressed in transfected cells; Puromycin-selected
T2 sequence (Q12908 1-348): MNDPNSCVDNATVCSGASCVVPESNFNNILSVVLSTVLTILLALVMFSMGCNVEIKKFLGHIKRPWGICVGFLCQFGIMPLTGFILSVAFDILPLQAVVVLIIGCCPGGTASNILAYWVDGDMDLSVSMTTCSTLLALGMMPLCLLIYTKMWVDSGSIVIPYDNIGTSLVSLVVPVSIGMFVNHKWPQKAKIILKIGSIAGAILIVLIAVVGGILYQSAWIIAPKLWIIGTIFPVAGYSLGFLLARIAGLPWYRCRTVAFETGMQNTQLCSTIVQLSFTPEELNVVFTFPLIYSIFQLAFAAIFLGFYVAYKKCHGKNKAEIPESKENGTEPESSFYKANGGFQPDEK
Method in brief: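 Human or mouse IBAT-overexpressing cells, seeded 48 h before the assay, were incubated 20 min at 37 °C with 0.25 μM 3H-taurocholic acid plus 5 μM cold taurocholic acid and inhibitor (10-point 3-fold series from 10 μM top, 0.2% DMSO final), in duplicate. After ice stop and washes with 1 mM cold taurocholate, uptake was read by scintillation counting.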

SMILES	IC50 (Human LBAT) [nM]	IC50 (Human IBAT) [nM]
CCCCC1(CC)CN(c2ccccc2)c2cc(SC)c(OCC(C)(F)C(=O)O)cc2S(=O)(=O)C1 (single isomer, unassigned) [35, diastereomer 1]	48	4
CCCCC1(CC)CN(c2ccccc2)c2cc(Cl)c(OCCC(=O)O)cc2S(=O)(=O)C1 (single isomer, unassigned) [Example 6, 3-((3-butyl-7-chloro-3-ethyl-1,1-dioxido-5-phenyl-2,3,4,5-tetrahydro-1,5-benzothiazepin-8-yl)oxy)propanoic acid]	410	17
CCCCC1(CC)CN(c2ccccc2)c2cc(Br)c(OCCC(=O)O)cc2S(=O)(=O)C1 (racemic) [Example 1, 3-((7-Bromo-3-butyl-3-ethyl-1,1-dioxido-5-phenyl-2,3,4,5-tetrahydro-1,5-benzothiazepin-8-yl)oxy)propanoic acid]	2170	18
CCCCC1(CCCC)CN(c2ccccc2)c2cc(SC)c(OCC(O)C(=O)O)cc2S(=O)(=O)C1 (single isomer, unassigned) [Example 10, 3-((3,3-dibutyl-7-(methylthio)-1,1-dioxido-5-phenyl-2,3,4,5-tetrahydro-1,5-benzothiazepin-8-yl)oxy)-2-hydroxypropanoic acid]	379	1
CCCCC1(CC)CN(c2ccccc2)c2cc(Cl)c(OC(C)CC(=O)O)cc2S(=O)(=O)C1 (single isomer, unassigned) [30, diastereomer 1]	283	22
CCCCC1(CCCC)CN(c2ccccc2)c2cc(SC)c(OCC(O)C(=O)O)cc2S(=O)(=O)C1 (racemic) [Example 9, 3-((3,3-Dibutyl-7-(methylthio)-1,1-dioxido-5-phenyl-2,3,4,5-tetrahydro-1,5-benzothiazepin-8-yl)oxy)-2-hydroxypropanoic acid]	396	3
CCCCC1(CCCC)CN(c2ccccc2)c2cc(SC)c(OCC(O)C(=O)O)cc2S(=O)(=O)C1 (single isomer, unassigned) [Example 11, 3-((3,3-dibutyl-7-(methylthio)-1,1-dioxido-5-phenyl-2,3,4,5-tetrahydro-1,5-benzothiazepin-8-yl)oxy)-2-hydroxypropanoic acid]	613	4
CCCCC1(CC)CN(c2ccccc2)c2cc(Br)c(OCCC(=O)O)cc2S(=O)(=O)C1 (single isomer, unassigned) [Example 2, 3-((7-bromo-3-butyl-3-ethyl-1,1-dioxido-5-phenyl-2,3,4,5-tetrahydro-1,5-benzothiazepin-8-yl)oxy)propanoic acid]	375	6

Continued by falling IC50 (Human LBAT), values first:

IC50 (Human LBAT) [nM]	IC50 (Human IBAT) [nM]	SMILES
2950	3	CCCCC1(C)CN(c2ccccc2)c2cc(SC)c(OCC(O)C(=O)O)cc2S(=O)(=O)C1 (single isomer, unassigned) [32, diastereomer 1]
2590	5	CCCCC1(C)CN(c2ccccc2)c2cc(N(C)C)c(OCCC(=O)O)cc2S(=O)(=O)C1 (single isomer, unassigned) [29, enantiomer 1]
1930	32	CCCCC1(CCCC)CN(c2ccccc2)c2cc(SC)c(OCCC(=O)O)cc2S(=O)(=O)C1 [Example 15, 3-((3,3-dibutyl-7-(methylthio)-1,1-dioxido-5-phenyl-2,3,4,5-tetrahydro-1,5-benzothiazepin-8-yl)oxy)propanoic acid]
596	7	CCCCC1(C)CN(c2ccccc2)c2cc(SC)c(OCCC(=O)O)cc2S(=O)(=O)C1 (single isomer, unassigned) [Example 24, 3-((3-butyl-3-methyl-7-(methylthio)-1,1-dioxido-5-phenyl-2,3,4,5-tetrahydro-1,5-benzothiazepin-8-yl)oxy)propanoic acid]
489	4	CCCCC1(CC)CN(c2ccccc2)c2cc(SC)c(OCCC(=O)O)cc2S(=O)(=O)C1 (single isomer, unassigned) [Example 13, 3-((3-butyl-3-ethyl-7-(methylthio)-1,1-dioxido-5-phenyl-2,3,4,5-tetrahydro-1,5-benzothiazepin-8-yl)oxy)propanoic acid]
375	26	CCCCC1(CCCC)CN(c2ccccc2)c2cc(Br)c(OCCC(=O)O)cc2S(=O)(=O)C1 [Example 4, 3-((7-Bromo-3,3-dibutyl-1,1-dioxido-5-phenyl-2,3,4,5-tetrahydro-1,5-benzothiazepin-8-yl)oxy)propanoic acid]
155	16	CCCCC1(CC)CN(c2ccccc2)c2cc(SC)c(OCC(C)(O)C(=O)O)cc2S(=O)(=O)C1 (single isomer, unassigned) [48, diastereomer 2]
28	12	CCCCC1(CC)CN(c2ccccc2)c2cc(SC)c(OCC(C)(F)C(=O)O)cc2S(=O)(=O)C1 (centres unmarked) [Example 34, 3-((3-butyl-3-ethyl-7-(methylthio)-1,1-dioxido-5-phenyl-2,3,4,5-tetrahydro-1,5-benzothiazepin-8-yl)oxy)-2-fluoro-2-methylpropanoic acid]
